From ChEMBL document CHEMBL3044729, “Quantitative structure-activity relationships of pine weevil antifeedants, a multivariate approach” (2007)

The compounds below were run on Hylobius abietis (assay: Antifeedant activity against Hylobius abietis (pine weevil ) in compound pre-treated Scots pine twig at 50 mM measured after 24 hr by two-choice laboratory bioassay).
Type: functional

Structure (SMILES) | AFI
COC(=O)/C=C/c1ccc(OC)c(OC)c1 | 36%
COC(=O)/C=C/c1ccc([N+](=O)[O-])cc1 | 32%
COc1ccccc1CCC(=O)O | 12%
COC(=O)CCc1ccc(OC)c(Br)c1 | 68%
COC(=O)CCc1ccccc1C | 91%
COC(=O)CCc1cccc(OC)c1 | 95%
COC(=O)CCc1cccc(C)c1 | 90%
COC(=O)CCc1ccc(Cl)c(Cl)c1 | 98%
COC(=O)CCc1cc(OC)c(OC)c(OC)c1 | 26%
COC(=O)CCc1cc(OC)cc(OC)c1 | 89%
COC(=O)CCc1ccc(OC)cc1 | 96%
CCCCOc1ccc(CCC(=O)OC)cc1 | 70%
COC(=O)CCc1ccc(C(C)=O)cc1 | 14%
COC(=O)CCc1ccc(C)cc1 | 99%
COC(=O)CCc1ccc(C(F)(F)F)cc1 | 57%
COC(=O)CCc1ccc(F)cc1 | 98%
COC(=O)CCc1ccc(N)cc1 | 29%
COC(=O)CCc1ccc(N(C)C)cc1 | 84%
COc1ccc(CCC(=O)OC(C)C)cc1 | 83%
Cc1ccccc1CCC(=O)O | 47%
COC(=O)CCc1ccccc1OC | 97%
COC(=O)CCc1cccc(OC)c1OC | 86%
COC(=O)CCc1ccc(C)cc1C | 100%
COC(=O)CCc1ccc(OC)c(OC)c1 | 35%
COC(=O)CCc1ccc(C(C)C)cc1 | 94%
COC(=O)CCc1ccc(Cl)cc1 | 100%

Structure (SMILES) | AFI
COC(=O)CCc1ccc(Br)cc1 | 97%
COC(=O)/C=C/c1cccc(OC)c1OC | 99%
COC(=O)/C=C/c1ccc(OC)cc1OC | 96%
COC(=O)/C=C/c1cc(OC)cc(OC)c1 | 72%
COC(=O)/C=C/c1ccc(C)cc1 | 76%
COC(=O)/C=C/c1ccc(C(C)C)cc1 | 92%
COC(=O)/C=C/c1ccc(C(F)(F)F)cc1 | 62%
COC(=O)/C=C/c1ccc(N(C)C)cc1 | 49%
COC(=O)c1cc(O)cc(OC)c1 | 54%
CCSC(=O)c1cc(OC)cc(OC)c1 | 74%
CCNC(=O)c1cc(OC)cc(OC)c1 | 86%
CCCCCCCCc1ccc(C(=O)OC)cc1 | 35%
CC/C=C/CCOC(=O)c1cc(OC)cc(OC)c1 | 62%
C=CCc1ccc(OC(=O)c2cc(OC)cc(OC)c2)c(OC)c1 | 17%
COc1cc(OC)cc(C(=O)OCCCc2ccc(OC)c(OC)c2)c1 | 41%
COC(=O)c1cc(O)ccc1OC | -3%
COc1cc(OC)cc(C(=O)OCC(F)(F)F)c1 | 86%
COc1cccc(C(=O)O)c1O | 22%
COc1ccc(O)c(C(=O)O)c1 | 17%
COC(=O)C(C)Cc1ccccc1 (racemic) | 79%
CCOC(=O)CC(O)c1ccccc1 (racemic) | 36%
CCOC(=O)CC(O)c1ccccc1Br (racemic) | 59%
COC(=O)C(Br)C(Br)c1ccccc1 (racemic) | 50%
CCOC(=O)C(Br)C(Br)c1ccccc1 (racemic; form 1) | 75%
CCOC(=O)C(Br)C(Br)c1ccccc1 (racemic; form 2) | 45%
CC(=O)Oc1cc(C(=O)O)cc(OC(C)=O)c1OC(C)=O [3,4,5-TRIACETOXYBENZOIC ACID] | 14%

Structure (SMILES) | AFI
COc1cc(C(N)=O)cc(OC)c1OC [3,4,5-TRIMETHOXYBENZAMIDE] | -2%
O=C(O)c1cc(O)cc(O)c1 [3,5-DIHYDROXYBENZOIC ACID] | 41%
COc1cc(OC)cc(C(=O)O)c1 [3,5-DIMETHOXYBENZOIC ACID] | -4%
COC(=O)CCc1ccc(O)cc1 [4-HYDROXYHYDROCINNAMIC ACID METHYL ESTER] | 21%
COc1ccc(C(=O)O)c(O)c1 [4-METHOXYSALICYLIC ACID] | 24%
COC(=O)c1c(C)cc(O)c(C)c1O [ATRARIC ACID] | 31%
CCCCOC(=O)/C=C/c1ccccc1 [BUTYL CINNAMATE] | 38%
COC(=O)CCc1ccc(O)c(OC)c1 [DIHYDROFERULIC ACID METHYL ESTER] | 54%
CCCCCCCCCCCCOC(=O)c1ccc(OC)c(OC)c1 [DODECYL 3,4-DIMETHOXYBENZOATE] | 23%
CCOC(=O)CCc1ccccc1 [ETHYL 3-PHENYLPROPANOATE] | 73%
CCOC(=O)/C=C/c1ccccc1 [ETHYL CINNAMATE] | 83%
COC(=O)c1cc(O)c(O)c(O)c1 [GALLIC ACID METHYL ESTER] | 21%
COc1ccc(C(=O)OC(C)C)c(OC)c1 [ISOPROPYL 2,4-DIMETHOXYBENZOATE] | 96%
CC(C)OC(=O)c1ccc(O)cc1 [ISOPROPYL 4-HYDROXYBENZOATE] | 63%
CC(C)OC(=O)/C=C/c1ccccc1 [ISOPROPYL CINNAMATE] | 96%
COC(=O)c1ccc(OC)c(O)c1 [ISOVANILLIC ACID METHYL ESTER] | 65%
COc1ccc(C(=O)O)cc1O [ISOVANILLIC ACID] | 51%
COC(=O)c1ccc(OC)c(OC)c1OC [METHYL 2,3,4-TRIMETHOXYBENZOATE] | 54%
COC(=O)c1cccc(OC)c1OC [METHYL 2,3-DIMETHOXYBENZOATE] | 73%
COC(=O)c1c(OC)cc(OC)cc1OC [METHYL 2,4,6-TRIMETHOXYBENZOATE] | 55%
COC(=O)c1ccc(O)cc1O [METHYL 2,4-DIHYDROXYBENZOATE] | 46%
COC(=O)c1ccc(OC)cc1OC [METHYL 2,4-DIMETHOXYBENZOATE] | 99%
COC(=O)c1cc(OC)ccc1OC [METHYL 2,5-DIMETHOXYBENZOATE] | 89%
COC(=O)c1c(OC)cccc1OC [METHYL 2,6-DIMETHOXYBENZOATE] | 51%
COC(=O)c1cccc(OC)c1O [METHYL 2-HYDROXY-3-METHOXYBENZOATE] | 95%
COC(=O)c1cc(OC)ccc1O [METHYL 2-HYDROXY-5-METHOXYBENZOATE] | 74%

Structure (SMILES) | AFI
COC(=O)c1c(O)cccc1OC [METHYL 2-HYDROXY-6-METHOXYBENZOATE] | 74%
COC(=O)c1ccccc1OC [METHYL 2-METHOXYBENZOATE] | 80%
COC(=O)c1ccc2c(c1)OCO2 [METHYL 3,4-METHYLENEDIOXYBENZOATE] | 57%
COC(=O)c1cc(Br)cc(Br)c1 [METHYL 3,5-DIBROMOBENZOATE] | 50%
COC(=O)c1cc(O)cc(O)c1 [METHYL 3,5-DIHYDROXYBENZOATE] | 23%
COC(=O)c1cc(OC)cc(OC)c1 [METHYL 3,5-DIMETHOXYBENZOATE] | 95%
COC(=O)c1cc(C)cc(C)c1 [METHYL 3,5-DIMETHYLBENZOATE] | 61%
COC(=O)c1cc([N+](=O)[O-])cc([N+](=O)[O-])c1 [METHYL 3,5-DINITROBENZOATE] | 34%
COC(=O)c1ccc(OC)c(Cl)c1 [METHYL 3-CHLORO-4-METHOXYBENZOATE] | 36%
COC(=O)c1cccc(O)c1OC [METHYL 3-HYDROXY-2-METHOXYBENZOATE] | 75%
COC(=O)c1cccc(OC)c1 [METHYL 3-METHOXYBENZOATE] | 89%
COC(=O)CCc1ccccc1 [METHYL 3-PHENYLPROPANOATE] | 44%
COC(=O)c1ccc(O)cc1OC [METHYL 4-HYDROXY-2-METHOXYBENZOATE] | 35%
COC(=O)c1ccc(OC)cc1 [METHYL 4-METHOXYBENZOATE] | 54%
COC(=O)c1ccc(O)c(O)c1 [METHYL PROTOCATECHUATE] | -7%
COC(=O)c1ccc(O)c(OC)c1 [METHYL VANILLATE] | 53%
COC(=O)c1ccc(O)cc1 [METHYLPARABEN] | 34%
O=C(O)c1ccc(O)cc1 [PARABEN] | 31%
O=C(O)c1ccc2c(c1)OCO2 [PIPERONYLIC ACID] | 14%
CCCOC(=O)/C=C/c1ccccc1 [PROPYL CINNAMATE] | 85%
O=C(O)c1ccccc1O [SALICYLIC ACID] | 21%
CCC(C)OC(=O)/C=C/c1ccccc1 (stereo not drawn) [SEC-BUTYL CINNAMATE] | 48%
COc1cc(C(=O)O)cc(OC)c1O [SYRINGIC ACID] | 8%
COc1cc(C(=O)O)ccc1O [VANILLIC ACID] | 48%
COc1ccc(C(=O)O)cc1OC [VERATRIC ACID] | 7%
